From patent publication US7977360B2, “Benzo[d]isoxazol-3-yl-amine compounds and their use as vanilloid receptor ligands” (Gruenenthal GmbH, priority 2005, dated 2011)

Target: T1, vanilloid receptor 1 (VR1/TRPV1 receptor) (Rattus norvegicus, UniProt O35433)
T1 construct: endogenous in cells; host or cells: primary cultured dorsal root ganglion cells from rats
Test: Functional study on vanilloid receptor 1 (VR1/TRPV1), FLIPR Ca2+ inflow assay in rat dorsal root ganglia cells (method I)
Type: cell-based
Settings: compound 10 μM, rat DRG cells; for inhibition at 10 µM: then 100 nM capsaicin after 5 min, per method % inhibition vs maximum achievable inhibition with 10 μM capsaicin, read-out: rVR1 [10 μM] inhibition; for rVR1 [10 μM] stimulation: per method % activation in relation to the Ca2+ signal after 10 μM capsaicin
Description: I. Functional Study on Vanilloid Receptor 1 (VR1/TRPV1 Receptor)
The agonistic or antagonistic effect of the substances to be studied on vanilloid receptor 1 (VR1/TRPV1) of the rat species can be determined with the following assay. According to this assay, the Ca^2+ inflow through the receptor canal is quantified with the help of a Ca^2+-sensitive dye (type Fluo-4, Molecular Probes Europe BV, Leiden Netherlands) in the Fluorescent Imaging Plate Reader (FLIPR, Molecular Devices, Sunnyvale, USA).
Complete medium: 50 mL HAMS F12 Nutrient Mixture (Gibco Invitrogen GmbH, Karlsruhe, Germany) with • 10% by vol. FCS (fetal calf serum, Gibco Invitrogen GmbH, Karlsruhe, Germany, heat-inactivated); • 2 mM L-glutamine (Sigma, Munich, Germany); • 1% by weight AA solution (antibiotic/antimycotic solution, PAA, Pasching, Austria) and 25 ng/ml medium NGF (2.5 S, Gibco Invitrogen GmbH, Karlsruhe, Germany)
Cell culture plate: Poly-D-Lysin-coated, 96 well black/clear plates (BD Biosciences, Heidelberg, Germany) are additionally coated with laminin (Gibco Invitrogen GmbH, Karlsruhe, Germany) by diluting laminin to a concentration of […] with PBS (Ca—Mg-free PBS, Gibco Invitrogen GmbH, Karlsruhe, Germany). Aliquots with a concentration of 100 μg/mL of laminin are removed and stored at −20° C. The aliquots are diluted with PBS in a ratio of 1:10 to 10 μg/mL of laminin and respectively 50 μL of the solution is pipetted into a recess of the cell culture plate. Die cell culture plates are incubated for at least two hours at 37° C., the remaining solutions is filtered off by suction and the recesses are each washed twice with PBS. The coated cell culture plates are stored with the remaining PBS and this is only removed directly before the addition of the cells.
The spinal column is removed from decapitated rats and this is placed directly in a cold HBSS buffer (Hank's buffered saline solution, Gibco Invitrogen GmbH, Karlsruhe, Germany), located in an ice bath, to which is added 1% by vol. (percent by volume) of an AA solution (antibiotic/antimycotic solution, PM, Pasching, Austria). The spinal column is divided longitudinally and removed from the vertebral canal together with fascia. The dorsal root ganglia (DRGs) are subsequently removed and in turn stored in cold HBSS buffer to which is added 1% by vol. of an AA solution. The DRGs which have been made completely free of blood residues and spinal nerves are transported in each case into 500 μL cold collagenase type 2 (PAA, Pasching, Austria) and incubated for 35 minutes at 37° C. […]
The DRGs are each multiply suspended, drawn by means of a syringe through cannulas no. […] The resultant pellet is respectively received in 250 μL complete medium and the cell number determined. […]

T1 sequence (O35433 whole entry): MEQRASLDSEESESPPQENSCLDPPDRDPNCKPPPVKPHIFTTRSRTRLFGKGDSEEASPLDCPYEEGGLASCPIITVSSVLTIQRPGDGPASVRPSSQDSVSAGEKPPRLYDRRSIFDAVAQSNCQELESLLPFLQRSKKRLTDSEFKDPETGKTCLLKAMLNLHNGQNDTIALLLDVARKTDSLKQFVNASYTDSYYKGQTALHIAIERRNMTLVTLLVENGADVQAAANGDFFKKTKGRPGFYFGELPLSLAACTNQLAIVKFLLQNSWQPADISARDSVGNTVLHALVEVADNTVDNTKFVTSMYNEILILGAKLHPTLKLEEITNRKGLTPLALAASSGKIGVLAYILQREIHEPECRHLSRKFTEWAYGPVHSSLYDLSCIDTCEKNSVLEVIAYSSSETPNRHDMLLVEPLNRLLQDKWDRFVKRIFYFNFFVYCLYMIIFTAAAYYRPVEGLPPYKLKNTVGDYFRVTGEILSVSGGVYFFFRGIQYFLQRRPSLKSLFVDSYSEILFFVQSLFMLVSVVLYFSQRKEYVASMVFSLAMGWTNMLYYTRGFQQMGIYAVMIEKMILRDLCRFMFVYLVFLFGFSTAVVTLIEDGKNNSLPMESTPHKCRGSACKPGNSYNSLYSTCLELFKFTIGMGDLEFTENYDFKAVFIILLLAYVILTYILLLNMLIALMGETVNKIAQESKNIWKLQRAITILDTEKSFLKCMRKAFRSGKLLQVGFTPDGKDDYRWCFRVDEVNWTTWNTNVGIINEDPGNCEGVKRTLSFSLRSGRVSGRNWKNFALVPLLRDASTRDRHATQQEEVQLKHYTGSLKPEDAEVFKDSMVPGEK

| inhibition at 10 µM | rVR1 [10 μM] stimulation | SMILES |
| --- | --- | --- |
| 65% | 0% | CC(C)(C)c1ccc(CNc2noc3cc(-c4ccccn4)ccc23)cc1 [Compound 9, (4-tert-butyl-benzyl)-(6-pyridine-2-yl-benzo[d]isoxazol-3-yl)-amine] |
| 99% | 29% | Cc1cccnc1-c1ccc2c(NCc3ccc(C(C)(C)C)cc3)noc2c1 [Compound 10, (4-tert-butyl-benzyl)-[6-(3-methyl-pyridine-2-yl)-benzo[d]isoxazol-3-yl]-amine] |
